Biological target: XLF (Homo sapiens, UniProt Q9H9Q4)
Assay: Thermoshift assay of XLF stability in cells
Assay type: cell-based

Chain of XLF (Q9H9Q4 whole entry): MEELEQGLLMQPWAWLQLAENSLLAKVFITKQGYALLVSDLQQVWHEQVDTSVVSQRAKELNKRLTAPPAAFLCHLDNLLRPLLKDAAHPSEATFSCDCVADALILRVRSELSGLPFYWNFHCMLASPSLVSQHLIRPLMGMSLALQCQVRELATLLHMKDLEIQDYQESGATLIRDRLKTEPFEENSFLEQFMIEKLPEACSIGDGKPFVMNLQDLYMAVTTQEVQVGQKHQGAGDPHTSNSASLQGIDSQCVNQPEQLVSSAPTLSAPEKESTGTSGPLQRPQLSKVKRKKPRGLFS

| Interaction with XLF (XLF stability) | SMILES |
| --- | --- |
| interacted with XLF | CC[C@]1(O)C[C@H]2CN(CCc3c([nH]c4ccccc34)[C@@](C(=O)OC)(c3cc4c(cc3OC)N(C=O)[C@H]3[C@@](O)(C(=O)OC)[C@H](OC(C)=O)[C@]5(CC)C=CCN6CC[C@]43[C@@H]65)C2)C1 [vincristine] |
| interacted with XLF | Oc1ccc(/C=C/c2cc(O)cc(O)c2)cc1 [resveratrol] |
| interacted with XLF | COc1cc(O)cc(CCc2ccc(O)c(OC)c2)c1 [Gigantol, gigantol] |
